Source: US20180153826A1, “MATERIALS AND METHODS FOR THE TREATMENT OF CYSTIC FIBROSIS” (UNIVERSITY OF FLORIDA RESEARCH FOUNDATION, INC., priority 2015, published 2018)

Experiments:
ENaC = ENaC activity as amiloride-sensitive bumetanide-insensitive Isc, weanling distal colon; parameters: species or system rat; conditions: 2.5% w/w added to diet vs normal 1%; 3 week old rats, distal colon
Experimental: FIG. 17. The inhibitory effect of […] on ENaC was examined electrophysiologically by measuring amiloride-sensitive short-circuit current responses in the presence or absence of […]. Weanling infant distal colonic mucosa, which expresses highest activity of ENaC, is employed and mounted in Ussing chamber. FIGS. 19A-19C. […] Here, the activity of ENaC is measured as amiloride-sensitive bumetanide-insensitive Isc. […] FIGS. 20A-20C. […] The activity of ENaC was measured as amiloride-sensitive bumetanide-insensitive Isc. […] Secretory Cl current is mediated by apical CFTR. This Cl secretory Isc is sensitive to bumetanide, applied to the basolateral side of the epithelium. There, bumetanide inhibits Cl entry from blood into the cell; thus, in the presence of bumetanide, the secretory Cl current is eliminated. Absorptive Na current is mediated by apically located epithelial Na channel (ENaC). This latter current is particularly high in this weanling age and is sensitive to amiloride, when it is applied luminally.

distal colonic mucosa = test: Lumen alkalinization response to [Ca^2+]o (lumen pH, Ussing chamber); parameters: species or system rat; conditions: for lumen alkalinization rate: mean±SE, n=3
Experimental: Experiments were performed using non-fasting male Sprague-Dawley rats and C57BL/6 mice. Rats weighting 100-400 g were obtained from Charles River Laboratories. Mice lacking CaSR expression in intestinal epithelial cells (CaSR^−/−) and their CaSR^+/+ littermates were bred and maintained. CaSR^−/− mice were generated as previously described. Briefly, CaSR flox/flox mice were bred with transgenic mice expressing Cre Recombinase under the control of the villin 1 promoter and genotyped prior to all experiments after an approximate 10-12 generations. Mice were used at 5-10 weeks of age. Animals were fed and maintained on regular chow (Harlan) with free access to water before sacrifice. Animals were sacrificed with standard CO2 inhalation followed by cervical dislocation. The colons were isolated, cut open along the mesenteric border into a flat sheet, and flushed with ice-cold Ringer solutions. Mucosa from the distal colon were carefully hand-stripped off of serosal, muscular and submucosal layers as described and a pair of adjacent mucosal segments were incised and mounted into Ussing chambers. In some experiments, stripped mucosa was incised longitudinally into two equal pieces in order to facilitate comparisons between control and treatment. Short-circuit current and transepithelial resistance differences between these two adjacent tissues were less than 15%.
(§1) Stripped mucosal sheets were mounted into Ussing chambers (window area=0.3-0.5 cm^2, Physiologic Instruments, San Diego, Calif.). The mucosal side of tissue was bathed with an unbuffered HCO3^−-free Cl^− Ringer solution (see Table 2 for detailed composition) circulated by a gas lift with 100% O2 while the serosal side was bathed with buffered Cl^− Ringer solution (pH 7.4) that contained 25 mM HCO3^− and gassed with 5% CO2/95% O2. Each side contained 3-5 ml of solution and the temperature of the solution was adjusted to and maintained at 37° C. by heated water-jacketed reservoirs. Experiments were performed under short-circuit conditions (Voltage-Current Clamp, VCC MC8; Physiologic Instruments, San Diego, Calif.) to maintain the transepithelial potentials at 0 mV, except for brief interruption at 20-second intervals for recording of open-circuit potential (VT, mV).
(§2) Two types of approaches were used in the measurement of colonic HCO3^− secretion, namely, measurement of lumen pH or pH stat titration of net alkalinization by colonic mucosa. […] The amount of the acid delivered per unit time per surface area was used to quantitate HCO3^− secretion by the mucosa. Measurements were recorded continuously and mean values for consecutive 5 or 10 min periods were averaged. The rate of HCO3^− secretion (JHCO3) is expressed as μEq/hr/cm^2. The short-circuit current (Isc) was measured in microamperes (μA) and converted into μEq/hr/cm^2. Tissue resistance (R, Ω cm^2) was calculated from Ohm's law.
Two equal pieces of mucosa from each colon that were obtained by longitudinal division along the antimessenteric border were mounted into two Ussing chambers. […] After 15 to 30 min, when stabilization was achieved and basal lumen pH recordings performed, HCO3^−-free Ringer solution in the serosal side was replaced by 25 mM HCO3-containing Ringer solution, and changes in lumen pH were monitored and recorded for 15 to 30 min. […]

[1] = tested on: Cl^− secretion induced by forskolin; conditions: rat distal colon; cited from earlier work
[2] = tested on: cAMP-dependent HCO3^− secretion; test: Cyclic nucleotide (cAMP)-dependent HCO3^− secretion, lumen Cl^−/SCFA-free; parameters: species or system rat; conditions: luminal; glibenclamide 100 μM, GlyH-101 10 μM, NPPB 100 μM (data not shown)
Experimental: Stripped mucosal sheets were mounted into Ussing chambers (window area=0.3-0.5 cm^2, Physiologic Instruments, San Diego, Calif.). The mucosal side of tissue was bathed with an unbuffered HCO3^--free Cl^- Ringer solution (see Table 2 for detailed composition) circulated by a gas lift with 100% O2 while the serosal side was bathed with buffered Cl^- Ringer solution (pH 7.4) that contained 25 mM HCO3^- and gassed with 5% CO2/95% O2. Each side contained 3-5 ml of solution and the temperature of the solution was adjusted to and maintained at 37° C. by heated water-jacketed reservoirs. Experiments were performed under short-circuit conditions (Voltage-Current Clamp, VCC MC8; Physiologic Instruments, San Diego, Calif.) to maintain the transepithelial potentials at 0 mV, except for brief interruption at 20-second intervals for recording of open-circuit potential (VT, mV). Two types of approaches were used in the measurement of colonic HCO3^- secretion, namely, measurement of lumen pH or pH stat titration of net alkalinization by colonic mucosa. […] Radiometer Analytical, Villeurbanne, France). The amount of the acid delivered per unit time per surface area was used to quantitate HCO3^- secretion by the mucosa. Measurements were recorded continuously and mean values for consecutive 5 or 10 min periods were averaged. […] The short-circuit current (Isc) was measured in microamperes (μA) and converted into μEq/hr/cm^2. Tissue resistance (R, Ω cm^2) was calculated from Ohm's law. Colon segments were prepared and treated as in the secretagogue-induced HCO3^- secretion experiments except that they were bathed luminally with HCO3^--free Ringer solution that contained no isobutyrate and no Cl^-. Cyclic nucleotide-dependent HCO3^- secretion was calculated as […] (the difference between JHCO3 after minus JHCO3 before the addition of forskolin). When inhibitor was used, it was added at 30 min before […] or forskolin.

[3] = tested on: CFTR-mediated and non CFTR-mediated HCO3^− secretion; test: Isc and pH stat HCO3^− secretion with/without lumen Cl^−, CFTR inhibitors or DIDS (FIGS. 5, 6); conditions: R568 response
Excerpt: FIG. 3. Experimental approach 1: The Ussing chamber pH-stat set up used to monitor and measure HCO3^- secretion by colonic mucosa. FIG. 4. Experimental Approach 2: Measurement of HCO3^- secretion by colonic mucosa in the presence of apical NPPB/Glibenclamide. FIGS. 5A-5F. Activation of CaSR by […] inhibits CFTR-mediated HCO3^- secretion (JHCO3) and ISC but stimulates non CFTR-mediated HCO3^- secretion (JHCO3) and Isc. Physiological approach assayed with, versus without, lumen Cl^-. FIGS. 6A-6F. Activation of CaSR by […] inhibits CFTR-mediated HCO3^- secretion (JHCO3) and ISC but stimulates CFTR-independent HCO3^- secretion (JHCO3) and Isc. Pharmacological approach assayed with, and without, CFTR transporter inhibitors or AE inhibitor DIDS.

Cl^−/HCO3^− exchange = Cl^−/HCO3^− exchange activity (Cl^−-dependent HCO3^− secretion); parameters: species or system rat; conditions: pretreatment, 100 μM, lumen side (data not shown)
Experimental: as §1, with “Experiments were performed under short-circuit conditions (Voltage-Current Clamp, VCC MC8; Physiologic Instruments, San Diego, Calif.) to maintain the transepithelial potentials at 0 mV, except for brief interruption at 20-second intervals for recording of open-circuit potential (VT, mV).” left out
as §2, with “law. […]” for “law.”

## [Ca+2] [Ca^2+]
ENaC
  amiloride-sensitive ENaC-mediated basal Isc: suppressed
Distal colonic mucosa; 0.5 mM [Ca^2+]o
  basal Isc: 1.44±0.32 μEq/hr/cm^2
Distal colonic mucosa; 1.2 mM [Ca^2+]o
  basal Isc: 1.10±0.10 μEq/hr/cm^2
Distal colonic mucosa; [Ca^2+]o = 0.5 mM
  lumen alkalinization rate: 0.013±0.002 pH unit/min/cm^2
Distal colonic mucosa; [Ca^2+]o = 1.2 mM
  lumen alkalinization rate: 0.031±0.002 pH unit/min/cm^2

## C[N+](C)(C)CCOC(N)=O [Carbachol]
Distal colonic mucosa; 100 μM, serosa, positive control
  lumen pH response: initial transient increase followed by a sustained increase in lumen pH

## CCCCNc1cc(C(=O)O)cc(S(N)(=O)=O)c1Oc1ccccc1 [Bumetanide]
[1]
  inhibition of forskolin-induced Cl^− secretion: ~70%

## COc1ccc(Cl)cc1C(=O)NCCc1ccc(S(=O)(=O)NC(=O)NC2CCCCC2)cc1 [glibenclamide]
[2]
  effect of pretreatment on forskolin stimulatory and R568 inhibitory effects on Isc: abolished

## O=C(O)c1cc([N+](=O)[O-])ccc1NCCCc1ccccc1 [NPPB, 5-nitro-2-(3-phenylpropylamino)benzoic acid]
[2]
  effect of pretreatment on forskolin stimulatory and R568 inhibitory effects on Isc: abolished

## O=C(CNc1ccc2ccccc2c1)N/N=C/c1cc(Br)c(O)c(Br)c1O [GlyH-101]
[2]
  effect of pretreatment on forskolin stimulatory and R568 inhibitory effects on Isc: abolished

## O=S(=O)(O)c1cc(N=C=S)ccc1C=Cc1ccc(N=C=S)cc1S(=O)(=O)O [DIDS, 4,4′-diisothiocyano-2,2′-stilbenedisulfonic acid]
[3]; FIG. 6C vs. 6A
  AE-associated current: partially inhibited
  CFTR activity (current): inhibited
[3]; FIG. 6F with 6D
  HCO3^− secretion rate: stimulated or did not change
Cl^−/HCO3^− exchange
  luminal Cl^−-dependent HCO3^− secretory mechanism: partially abolished
